In PMC6025622, “A Novel Atypical PKC-Iota Inhibitor, Echinochrome A, Enhances Cardiomyocyte Differentiation from Mouse Embryonic Stem Cells” (Marine Drugs, 2018):

Target: T1, atypical protein kinase C-iota (PKCι) (Homo sapiens, UniProt P41743)
T1 construct: gene PRKCI; full-length protein
T1 sequence (P41743 2-596): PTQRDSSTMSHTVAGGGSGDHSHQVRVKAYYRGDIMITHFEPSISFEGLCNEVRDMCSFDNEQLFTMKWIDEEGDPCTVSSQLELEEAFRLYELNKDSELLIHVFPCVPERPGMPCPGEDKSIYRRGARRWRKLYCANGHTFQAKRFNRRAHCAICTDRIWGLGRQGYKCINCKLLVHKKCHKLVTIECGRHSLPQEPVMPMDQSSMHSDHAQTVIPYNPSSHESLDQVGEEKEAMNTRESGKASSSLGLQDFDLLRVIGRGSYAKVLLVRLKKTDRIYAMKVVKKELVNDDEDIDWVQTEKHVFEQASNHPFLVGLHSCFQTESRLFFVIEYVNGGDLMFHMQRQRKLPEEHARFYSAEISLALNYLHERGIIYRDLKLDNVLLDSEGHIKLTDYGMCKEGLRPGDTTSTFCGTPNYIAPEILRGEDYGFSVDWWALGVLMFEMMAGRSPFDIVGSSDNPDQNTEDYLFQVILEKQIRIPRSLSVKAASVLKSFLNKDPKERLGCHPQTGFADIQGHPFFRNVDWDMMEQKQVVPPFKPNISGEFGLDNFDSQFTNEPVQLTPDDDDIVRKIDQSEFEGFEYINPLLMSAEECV
Test: surface plasmon resonance, PKCι immobilized by amine coupling; also cell-free kinase assay IC50 […]
Type: binding

A Kd of 6.3 nM was found for `CCc1c(O)c(O)c2c(c1O)C(=O)C(O)=C(O)C2=O` [Ech A, 6-ethyl-2,3,5,7,8-pentahydroxy-1,4-naphthoquinone] in this work.
